Source: publication PMC4961458 (eLife, 2016)

Tests used:
MR = molecular target: T1, MR (Homo sapiens, UniProt P08235); experiment: MR transcriptional reporter assay, antagonist mode (HEPG2 cells); assay type: cell-based; conditions: 1 nM aldosterone
T1 construct: expressed in transfected cells; host or cells: HEPG2
T1 sequence (P08235 1-984): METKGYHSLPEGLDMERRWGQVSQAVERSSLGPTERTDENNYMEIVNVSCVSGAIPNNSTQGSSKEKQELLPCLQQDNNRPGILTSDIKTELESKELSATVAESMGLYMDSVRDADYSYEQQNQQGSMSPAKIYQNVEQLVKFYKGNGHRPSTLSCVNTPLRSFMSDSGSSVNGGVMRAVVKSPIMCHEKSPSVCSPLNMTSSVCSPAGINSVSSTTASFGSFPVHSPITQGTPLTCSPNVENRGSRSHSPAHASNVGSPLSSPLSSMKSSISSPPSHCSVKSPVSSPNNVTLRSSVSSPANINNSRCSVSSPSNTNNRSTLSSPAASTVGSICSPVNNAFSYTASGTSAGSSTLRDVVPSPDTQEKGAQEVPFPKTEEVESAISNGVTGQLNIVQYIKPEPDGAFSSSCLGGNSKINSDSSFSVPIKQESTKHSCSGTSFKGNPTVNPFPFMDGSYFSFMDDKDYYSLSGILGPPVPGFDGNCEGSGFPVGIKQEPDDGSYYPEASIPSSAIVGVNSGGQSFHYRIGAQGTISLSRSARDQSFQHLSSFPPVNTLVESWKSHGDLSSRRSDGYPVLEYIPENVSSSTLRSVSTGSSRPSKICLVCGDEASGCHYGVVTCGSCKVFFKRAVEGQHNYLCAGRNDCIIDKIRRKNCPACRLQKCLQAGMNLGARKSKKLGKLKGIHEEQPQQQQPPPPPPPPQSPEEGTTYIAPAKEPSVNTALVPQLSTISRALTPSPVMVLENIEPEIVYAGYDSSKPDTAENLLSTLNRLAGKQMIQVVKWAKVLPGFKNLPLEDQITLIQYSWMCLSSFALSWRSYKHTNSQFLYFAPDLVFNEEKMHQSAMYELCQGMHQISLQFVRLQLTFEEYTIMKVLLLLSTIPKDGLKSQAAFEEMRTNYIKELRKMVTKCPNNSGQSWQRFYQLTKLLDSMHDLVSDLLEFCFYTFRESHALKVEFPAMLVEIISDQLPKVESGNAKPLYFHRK

PR-A = molecular target: T2, PR-A (Homo sapiens, UniProt P06401); experiment: PR-A transcriptional reporter assay, antagonist mode (HEPG2 cells)
T2 sequence (P06401 1-769 isoform P06401-2): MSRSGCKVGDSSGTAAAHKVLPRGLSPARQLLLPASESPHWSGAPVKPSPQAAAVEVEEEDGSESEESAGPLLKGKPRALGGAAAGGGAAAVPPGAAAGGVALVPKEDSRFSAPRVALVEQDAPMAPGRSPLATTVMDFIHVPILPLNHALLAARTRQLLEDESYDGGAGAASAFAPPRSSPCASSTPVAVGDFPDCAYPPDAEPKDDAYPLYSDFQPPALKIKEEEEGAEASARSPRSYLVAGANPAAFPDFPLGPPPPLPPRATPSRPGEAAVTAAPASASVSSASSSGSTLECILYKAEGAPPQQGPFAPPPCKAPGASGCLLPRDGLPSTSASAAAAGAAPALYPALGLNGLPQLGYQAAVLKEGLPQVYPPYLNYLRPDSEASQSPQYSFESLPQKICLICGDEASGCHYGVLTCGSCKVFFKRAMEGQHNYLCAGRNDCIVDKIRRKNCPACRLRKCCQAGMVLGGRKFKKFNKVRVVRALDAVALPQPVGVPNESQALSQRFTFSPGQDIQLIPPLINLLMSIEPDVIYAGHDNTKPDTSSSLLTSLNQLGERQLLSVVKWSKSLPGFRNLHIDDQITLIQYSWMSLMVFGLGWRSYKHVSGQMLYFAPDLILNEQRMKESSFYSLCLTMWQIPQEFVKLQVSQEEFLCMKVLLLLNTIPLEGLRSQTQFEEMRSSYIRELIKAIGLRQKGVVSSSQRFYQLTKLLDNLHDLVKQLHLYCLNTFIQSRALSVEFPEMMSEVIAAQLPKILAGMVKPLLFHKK

T47D ER.WT cells = experiment: Cell viability, T47D ER.WT cells; assay type: cell-based; conditions: Homo sapiens, +E2
Method: In the presence of 0.1 nM estrogen however, much of this competitive advantage is lost, with WT cells representing 40% ± 0.2% of the total population at day 15 (Figure 7C,D).
Figure 7. […] 4 images per condition were quantified.

[1] = test system: ZR75-1 ER+ breast cancer tumors; experiment: ZR-75-1 xenograft efficacy; assay type: in vivo, mice; conditions: GDC-0810 100 mg/kg/day p.o., 28 days, 0.72 mg E2 pellets
ERα [2] = molecular target: T3, ERα (Homo sapiens, UniProt P03372); experiment: MCF7 3X ERE-LUC transcriptional reporter assay (ERα antagonist); conditions: 0.1 nM 17β-estradiol, 24 hr
ERα [3] = molecular target: T3, ERα; experiment: MCF7 ERα In-Cell Western assay; conditions: MCF7, 4 hr

T3 sequence (P03372 whole entry): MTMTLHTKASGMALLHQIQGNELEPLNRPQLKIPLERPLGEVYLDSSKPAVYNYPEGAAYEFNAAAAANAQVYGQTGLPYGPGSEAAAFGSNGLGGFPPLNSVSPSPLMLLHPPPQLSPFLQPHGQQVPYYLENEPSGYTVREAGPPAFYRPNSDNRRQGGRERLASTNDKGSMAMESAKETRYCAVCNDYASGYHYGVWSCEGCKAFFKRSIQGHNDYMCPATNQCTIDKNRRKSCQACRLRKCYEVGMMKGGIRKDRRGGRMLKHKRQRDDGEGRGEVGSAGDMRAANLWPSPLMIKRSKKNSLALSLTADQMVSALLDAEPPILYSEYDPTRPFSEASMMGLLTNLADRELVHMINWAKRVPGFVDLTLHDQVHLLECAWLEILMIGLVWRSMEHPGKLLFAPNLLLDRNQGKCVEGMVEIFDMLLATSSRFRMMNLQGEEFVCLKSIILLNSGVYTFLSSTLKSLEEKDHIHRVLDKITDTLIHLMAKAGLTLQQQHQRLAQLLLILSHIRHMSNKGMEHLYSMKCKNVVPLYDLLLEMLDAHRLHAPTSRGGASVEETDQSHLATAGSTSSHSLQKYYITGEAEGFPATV

CC/C(=C(\c1ccc(O)cc1)c1ccc(OCCN(C)C)cc1)c1ccccc1 [4-OH Tam, 4-hydroxytamoxifen]
IC50 (MR): 6.42 ± 0.75 µM
IC50 (PR-A): 12 ± 4.5 µM

CC/C(=C(/c1ccc(/C=C/C(=O)O)cc1)c1ccc2[nH]ncc2c1)c1ccc(F)cc1Cl [GDC-0810]
IC50 (T47D ER.WT cells): 0.032 µM
Tumor growth response, ZR75-1 xenograft [1]: displayed anti-tumor activity

C[C@]12CC[C@@H]3c4ccc(O)cc4C[C@@H](CCCCCCCCC[S+]([O-])CCCC(F)(F)C(F)(F)F)[C@H]3[C@@H]1CC[C@@H]2O (stereo partly drawn) [Fulvestrant]
Transcription 3X ERE-LUC Emax (ERα [2]): 4.1 ± 2.6 % E2
ERα degradation In-Cell Western Emax (ERα [3]): 6.4 ± 2.0 % Veh.
